What was measured:
[1] = tested on: CD8+ T cells; assay: In vitro T-cell priming assay with aAPCs loaded with peptide/MHC and anti-CD28, multimer readout; assay type: cell-based, human; details: in vitro immunogenicity, HLA-A*02 restricted peptides; percentage of positive wells
Source text: In order to obtain information regarding the immunogenicity of the TUMAPs of the present invention, the inventors performed investigations using an in vitro T-cell priming assay based on repeated stimulations of CD8+ T cells with artificial antigen presenting cells (aAPCs) loaded with peptide/MHC complexes and anti-CD28 antibody.
In order to perform in vitro stimulations by artificial antigen presenting cells loaded with peptide-MHC complex (pMHC) and anti-CD28 antibody, the inventors first isolated CD8+ T cells from fresh HLA-A*02 leukapheresis products via positive selection using CD8 microbeads (Miltenyi Biotec, Bergisch-Gladbach, Germany) of healthy donors obtained from the University clinics Mannheim, Germany, after informed consent.
PBMCs and isolated CD8+ lymphocytes were incubated in T-cell medium (TCM) until use consisting of RPMI-Glutamax (Invitrogen, Karlsruhe, Germany) supplemented with 10% heat inactivated human AB serum (PAN-Biotech, Aidenbach, Germany), 100 U/ml Penicillin/100 μg/ml Streptomycin (Cambrex, Cologne, Germany), 1 mM sodium pyruvate (CC Pro, Oberdorla, Germany), 20 μg/ml Gentamycin (Cambrex). 2.5 ng/ml IL-7 (PromoCell, Heidelberg, Germany) and 10 U/ml IL-2 (Novartis Pharma, Nürnberg, Germany) were also added to the TCM at this step.
Generation of pMHC/anti-CD28 coated beads, T-cell stimulations and readout was performed in a highly defined in vitro system using four different pMHC molecules per stimulation condition and 8 different pMHC molecules per readout condition.
The purified co-stimulatory mouse IgG2a anti human CD28 Ab 9.3 (Jung et al., 1987) was chemically biotinylated using Sulfo-N-hydroxysuccinimidobiotin as recommended by the manufacturer (Perbio, Bonn, Germany). Beads used were 5.6 μm diameter streptavidin coated polystyrene particles (Bangs Laboratories, Illinois, USA).
800.000 beads/200 μl were coated in 96-well plates in the presence of 4×12.5 ng different biotin-pMHC, washed and 600 ng biotin anti-CD28 were added subsequently in a volume of 200 μl. Stimulations were initiated in 96-well plates by co-incubating […] CD8+ T cells with 2×10^5 washed coated beads in 200 μl TCM supplemented with 5 ng/ml IL-12 (PromoCell) for 3 days at 37° C. Half of the medium was then exchanged by fresh TCM supplemented with 80 U/ml IL-2 and incubating was continued for 4 days at 37° C. This stimulation cycle was performed for a total of three times. For the pMHC multimer readout using 8 different pMHC molecules per condition, a two-dimensional combinatorial coding approach was used as previously described (Andersen et al., 2012) with minor modifications encompassing coupling to 5 different fluorochromes. Finally, multimeric analyses were performed by staining the cells with Live/dead near IR dye (Invitrogen, Karlsruhe, Germany), CD8-FITC antibody clone SK1 (BD, Heidelberg, Germany) and fluorescent pMHC multimers. For analysis, a BD LSRII SORP cytometer equipped with appropriate lasers and filters was used. Peptide specific cells were calculated as percentage of total CD8+ cells. Evaluation of multimeric analysis was done using the FlowJo software (Tree Star, Oreg., USA). In vitro priming of specific multimer+CD8+ lymphocytes was detected by comparing to negative control stimulations.

[2] = target: HLA-A*02:01 (Homo sapiens, UniProt P04439, D140Y/D185E/D98H/E176V/E277Q/G131W/G231S/I119V/I121R/I166T/I218V/L300P/L318F/N151K/N90K/P208A/P217A/Q86G/Q94H/R138H/R169H/T345S); assay: MHC binding assay (UV-ligand exchange, beta2m ELISA); details: binding of HLA-class I restricted peptides to HLA-A*02:01, β2m ELISA
How it was run: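 UV-exchange pMHC monomers, 100-fold diluted → streptavidin capture 1 h 37 °C → HRP anti-β2m 2 ug/ml 1 h 37 °C → TMB, A450. Yield from HLA-A*02:01/MLA-001 monomer standard curve, 15-500 ng/ml. Only stably bound peptides keep β2m-containing complexes intact.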

Peptide Exchange (MHC class I binding score, peptide exchange yield) [2]: “+++” (≥50 = +++)
Substance: 281 (NLLDDRGMTAL; listed as Homo sapiens) [compound 281]
Wells positive [%] [1]: “+” (<20% = +)

From patent publication US10064928B2, “Peptides and combination of peptides for use in immunotherapy against CLL and other cancers” (IMMATICS BIOTECHNOLOGIES GMBH, priority 2015, dated 2018)
